Experimental data published in the kinase profiling compilation of Christmann-Franck et al. (2016).

Tests used:
ABL2 (human) = ABL2 (human) (UniProt P42684)
ACVR1B (human) = ACVR1B (human) (UniProt P36896)
BMP2K (human) = BMP2K (human) (UniProt Q9NSY1)
BTK (human) = BTK (human) (UniProt Q06187)
CAMK2G (human) = CAMK2G (human) (UniProt Q13555)
CAMKK2 (human) = CAMKK2 (human) (UniProt Q96RR4)
CLK2 (human) = CLK2 (human) (UniProt P49760)
CSK (human) = CSK (human) (UniProt P41240)
EIF2AK1 (human) = EIF2AK1 (human) (UniProt Q9BQI3)
EPHB1 (human) = EPHB1 (human) (UniProt P54762)
FRK (human) = FRK (human) (UniProt P42685)
HCK (human) = HCK (human) (UniProt P08631)
MAP3K1 (human) = MAP3K1 (human) (UniProt Q13233)
MAP3K11 (human) = MAP3K11 (human) (UniProt Q16584)
MAP3K3 (human) = MAP3K3 (human) (UniProt Q99759)
MAP3K4 (human) = MAP3K4 (human) (UniProt Q9Y6R4)
MAP4K2 (human) = MAP4K2 (human) (UniProt Q12851)
MAP4K5 (human) = MAP4K5 (human) (UniProt Q9Y4K4)
MERTK (human) = MERTK (human) (UniProt Q12866)
NLK (human) = NLK (human) (UniProt Q9UBE8)
PRKAA1 (human) = PRKAA1 (human) (UniProt Q13131)
PRKCQ (human) = PRKCQ (human) (UniProt Q04759)
PTK2B (human) = PTK2B (human) (UniProt Q14289)
RPS6KA3 KD1 KD2 (human) = RPS6KA3 KD1 KD2 (human) (UniProt P51812)
SIK3 (human) = SIK3 (human) (UniProt Q9Y2K2)
SMG1 (human) = SMG1 (human) (UniProt Q96Q15)
SYK (human) = SYK (human) (UniProt P43405)
TAOK1 (human) = TAOK1 (human) (UniProt Q7L7X3)
TBK1 (human) = TBK1 (human) (UniProt Q9UHD2)
TEC (human) = TEC (human) (UniProt P42680)
TNK2 (human) = TNK2 (human) (UniProt Q07912)
ULK3 (human) = ULK3 (human) (UniProt Q6PHR2)
ULK3 (human), sequence (Q6PHR2 whole entry, looked up): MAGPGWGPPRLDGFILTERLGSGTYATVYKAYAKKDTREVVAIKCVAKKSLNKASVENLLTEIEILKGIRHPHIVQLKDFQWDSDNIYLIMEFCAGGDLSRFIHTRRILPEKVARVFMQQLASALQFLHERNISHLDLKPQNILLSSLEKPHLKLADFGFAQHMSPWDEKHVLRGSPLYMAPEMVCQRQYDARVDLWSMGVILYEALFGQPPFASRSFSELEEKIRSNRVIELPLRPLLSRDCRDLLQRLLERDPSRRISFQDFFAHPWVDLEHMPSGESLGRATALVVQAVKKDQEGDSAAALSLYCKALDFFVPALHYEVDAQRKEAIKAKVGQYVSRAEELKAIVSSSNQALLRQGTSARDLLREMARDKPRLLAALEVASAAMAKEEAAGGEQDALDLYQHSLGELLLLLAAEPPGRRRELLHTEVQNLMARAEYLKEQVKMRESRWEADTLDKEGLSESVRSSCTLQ

EIF2AK1 (human), sequence (Q9BQI3 whole entry, looked up): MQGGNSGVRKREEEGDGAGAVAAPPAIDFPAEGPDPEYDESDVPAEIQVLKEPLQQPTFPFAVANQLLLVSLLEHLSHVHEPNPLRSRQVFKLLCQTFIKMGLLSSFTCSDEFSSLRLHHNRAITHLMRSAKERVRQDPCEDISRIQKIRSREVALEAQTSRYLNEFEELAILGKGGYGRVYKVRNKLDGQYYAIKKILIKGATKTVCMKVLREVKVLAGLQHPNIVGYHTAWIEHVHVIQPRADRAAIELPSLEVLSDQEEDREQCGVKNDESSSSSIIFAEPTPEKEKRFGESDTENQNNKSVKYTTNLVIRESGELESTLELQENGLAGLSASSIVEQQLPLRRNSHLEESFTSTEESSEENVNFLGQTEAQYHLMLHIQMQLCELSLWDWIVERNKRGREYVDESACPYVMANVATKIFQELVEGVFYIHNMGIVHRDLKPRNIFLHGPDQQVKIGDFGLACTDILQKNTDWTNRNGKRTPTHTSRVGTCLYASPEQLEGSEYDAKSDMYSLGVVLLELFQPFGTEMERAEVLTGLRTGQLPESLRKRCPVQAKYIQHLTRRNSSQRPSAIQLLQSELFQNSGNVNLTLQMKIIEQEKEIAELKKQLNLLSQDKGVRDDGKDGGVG
MAP3K4 (human), sequence (Q9Y6R4 whole entry, looked up): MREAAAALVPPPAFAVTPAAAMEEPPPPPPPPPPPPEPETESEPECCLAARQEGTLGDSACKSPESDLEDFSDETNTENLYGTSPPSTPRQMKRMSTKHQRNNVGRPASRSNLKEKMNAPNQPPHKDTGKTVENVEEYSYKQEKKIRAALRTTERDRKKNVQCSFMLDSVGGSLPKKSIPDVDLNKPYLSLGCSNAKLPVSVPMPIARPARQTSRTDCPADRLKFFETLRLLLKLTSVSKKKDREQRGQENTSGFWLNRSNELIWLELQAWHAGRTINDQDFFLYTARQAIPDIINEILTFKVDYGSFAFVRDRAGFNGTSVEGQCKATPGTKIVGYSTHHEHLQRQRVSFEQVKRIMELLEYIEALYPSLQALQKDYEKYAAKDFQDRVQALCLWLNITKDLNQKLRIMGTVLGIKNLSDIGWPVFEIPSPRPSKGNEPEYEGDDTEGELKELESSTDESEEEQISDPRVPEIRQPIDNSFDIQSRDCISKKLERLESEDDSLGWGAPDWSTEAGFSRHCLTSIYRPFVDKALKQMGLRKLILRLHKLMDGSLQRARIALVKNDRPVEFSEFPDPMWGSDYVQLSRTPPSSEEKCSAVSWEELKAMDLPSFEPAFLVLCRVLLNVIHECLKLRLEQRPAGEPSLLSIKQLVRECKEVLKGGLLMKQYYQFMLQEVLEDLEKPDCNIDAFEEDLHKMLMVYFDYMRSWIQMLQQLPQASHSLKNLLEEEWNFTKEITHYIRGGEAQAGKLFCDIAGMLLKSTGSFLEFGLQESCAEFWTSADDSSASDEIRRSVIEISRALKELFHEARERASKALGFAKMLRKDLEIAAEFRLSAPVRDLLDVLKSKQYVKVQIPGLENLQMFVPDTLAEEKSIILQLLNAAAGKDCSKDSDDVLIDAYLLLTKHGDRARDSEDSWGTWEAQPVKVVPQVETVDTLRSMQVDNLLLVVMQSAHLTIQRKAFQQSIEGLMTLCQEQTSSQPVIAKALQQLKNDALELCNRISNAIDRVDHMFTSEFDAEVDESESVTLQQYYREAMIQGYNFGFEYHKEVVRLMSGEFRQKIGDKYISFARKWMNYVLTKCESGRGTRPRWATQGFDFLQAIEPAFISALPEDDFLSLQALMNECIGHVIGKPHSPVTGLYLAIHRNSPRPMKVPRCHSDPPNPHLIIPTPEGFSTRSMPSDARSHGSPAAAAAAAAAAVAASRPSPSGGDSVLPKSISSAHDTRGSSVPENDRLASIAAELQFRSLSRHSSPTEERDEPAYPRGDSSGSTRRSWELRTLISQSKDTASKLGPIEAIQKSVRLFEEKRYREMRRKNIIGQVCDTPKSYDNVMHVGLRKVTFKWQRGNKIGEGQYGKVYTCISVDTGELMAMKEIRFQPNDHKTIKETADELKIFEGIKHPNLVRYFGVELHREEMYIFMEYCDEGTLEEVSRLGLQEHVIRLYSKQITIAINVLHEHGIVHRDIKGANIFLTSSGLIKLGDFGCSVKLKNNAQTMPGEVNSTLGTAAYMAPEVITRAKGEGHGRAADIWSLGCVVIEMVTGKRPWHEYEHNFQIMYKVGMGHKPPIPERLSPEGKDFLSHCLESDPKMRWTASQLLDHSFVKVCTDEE
TBK1 (human), sequence (Q9UHD2 whole entry, looked up): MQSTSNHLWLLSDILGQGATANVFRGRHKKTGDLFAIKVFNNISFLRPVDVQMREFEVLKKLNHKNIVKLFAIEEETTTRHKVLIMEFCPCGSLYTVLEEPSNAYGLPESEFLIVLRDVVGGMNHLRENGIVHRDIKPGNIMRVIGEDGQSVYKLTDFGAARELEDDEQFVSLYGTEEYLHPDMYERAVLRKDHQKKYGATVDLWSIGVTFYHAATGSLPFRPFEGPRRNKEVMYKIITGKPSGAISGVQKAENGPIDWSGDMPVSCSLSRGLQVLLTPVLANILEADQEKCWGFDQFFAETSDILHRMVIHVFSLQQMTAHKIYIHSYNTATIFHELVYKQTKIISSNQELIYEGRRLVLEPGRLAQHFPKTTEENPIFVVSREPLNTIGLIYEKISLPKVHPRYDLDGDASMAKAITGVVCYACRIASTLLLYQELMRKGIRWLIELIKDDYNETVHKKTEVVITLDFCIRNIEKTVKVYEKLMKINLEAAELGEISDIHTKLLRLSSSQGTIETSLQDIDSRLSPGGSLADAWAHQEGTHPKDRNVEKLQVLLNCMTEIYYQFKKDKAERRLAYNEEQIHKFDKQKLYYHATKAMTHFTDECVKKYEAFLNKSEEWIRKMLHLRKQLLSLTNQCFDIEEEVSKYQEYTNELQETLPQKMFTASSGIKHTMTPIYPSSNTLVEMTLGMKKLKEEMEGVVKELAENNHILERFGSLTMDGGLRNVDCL
NLK (human), sequence (Q9UBE8 whole entry, looked up): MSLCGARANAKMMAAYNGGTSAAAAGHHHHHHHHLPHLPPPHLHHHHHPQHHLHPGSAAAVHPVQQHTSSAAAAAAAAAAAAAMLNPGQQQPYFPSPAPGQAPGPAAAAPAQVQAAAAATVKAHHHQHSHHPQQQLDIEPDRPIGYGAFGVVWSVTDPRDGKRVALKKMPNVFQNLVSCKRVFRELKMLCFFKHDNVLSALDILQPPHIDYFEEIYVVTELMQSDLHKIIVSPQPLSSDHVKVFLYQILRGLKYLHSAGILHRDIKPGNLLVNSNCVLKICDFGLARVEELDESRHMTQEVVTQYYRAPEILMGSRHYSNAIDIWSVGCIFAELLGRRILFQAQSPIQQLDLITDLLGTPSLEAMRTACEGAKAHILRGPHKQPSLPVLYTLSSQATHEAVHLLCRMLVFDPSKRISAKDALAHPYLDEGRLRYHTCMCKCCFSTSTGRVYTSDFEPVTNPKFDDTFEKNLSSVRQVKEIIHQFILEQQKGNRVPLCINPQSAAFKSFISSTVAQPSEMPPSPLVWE
CAMKK2 (human), sequence (Q96RR4 whole entry, looked up): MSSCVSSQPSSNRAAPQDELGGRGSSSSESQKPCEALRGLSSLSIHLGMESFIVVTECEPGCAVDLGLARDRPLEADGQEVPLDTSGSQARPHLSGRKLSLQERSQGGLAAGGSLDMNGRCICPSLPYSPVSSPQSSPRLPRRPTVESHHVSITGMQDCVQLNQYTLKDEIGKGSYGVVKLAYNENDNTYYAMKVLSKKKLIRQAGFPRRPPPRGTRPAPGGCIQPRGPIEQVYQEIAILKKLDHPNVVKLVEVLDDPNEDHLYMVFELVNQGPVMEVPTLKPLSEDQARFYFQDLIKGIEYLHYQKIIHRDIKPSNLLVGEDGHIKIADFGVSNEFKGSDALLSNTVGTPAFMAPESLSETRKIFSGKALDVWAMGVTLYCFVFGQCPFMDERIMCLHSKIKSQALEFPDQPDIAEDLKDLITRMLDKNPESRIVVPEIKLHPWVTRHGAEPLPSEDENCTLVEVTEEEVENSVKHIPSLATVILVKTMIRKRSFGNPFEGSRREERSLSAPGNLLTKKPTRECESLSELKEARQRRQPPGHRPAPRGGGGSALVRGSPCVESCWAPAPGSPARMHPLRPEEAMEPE
FRK (human), sequence (P42685 whole entry, looked up): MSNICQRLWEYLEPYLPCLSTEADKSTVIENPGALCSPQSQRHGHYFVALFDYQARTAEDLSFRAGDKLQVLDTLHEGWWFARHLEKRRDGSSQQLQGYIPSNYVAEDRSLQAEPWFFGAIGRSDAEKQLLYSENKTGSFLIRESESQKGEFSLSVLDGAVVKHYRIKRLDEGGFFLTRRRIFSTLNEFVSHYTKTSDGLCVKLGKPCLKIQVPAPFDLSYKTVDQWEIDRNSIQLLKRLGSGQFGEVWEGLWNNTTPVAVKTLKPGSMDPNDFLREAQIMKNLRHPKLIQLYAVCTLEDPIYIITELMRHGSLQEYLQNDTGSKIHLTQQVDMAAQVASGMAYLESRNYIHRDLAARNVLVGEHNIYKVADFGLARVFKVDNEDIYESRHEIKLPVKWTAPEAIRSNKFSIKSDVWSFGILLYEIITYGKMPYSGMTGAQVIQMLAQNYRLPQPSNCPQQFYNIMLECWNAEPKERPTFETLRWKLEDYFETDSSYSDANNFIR

`COc1cc(Nc2c(C#N)cnc3cc(OCCCN4CCN(C)CC4)c(OC)cc23)c(Cl)cc1Cl` showed an IC50 (ABL2 (human)) of 71 nM, an IC50 (ACVR1B (human)) of 91 nM and an IC50 (BMP2K (human)) of 1060 nM. The IC50 (BTK (human)) was 175 nM, the IC50 (CAMK2G (human)) was 1520 nM and the IC50 (CAMKK2 (human)) was 1430 nM. The IC50 (CLK2 (human)) was 1100 nM, the IC50 (CSK (human)) was 707 nM and the IC50 (EIF2AK1 (human)) was 1220 nM. It also gave an IC50 (EPHB1 (human)) of 369 nM, an IC50 (FRK (human)) of 507 nM and an IC50 (HCK (human)) of 580 nM. It also gave an IC50 (MAP3K1 (human)) of 156 nM, an IC50 (MAP3K11 (human)) of 1540 nM and an IC50 (MAP3K3 (human)) of 612 nM. For the same compound, the IC50 (MAP3K4 (human)) was 299 nM, the IC50 (MAP4K2 (human)) was 431 nM and the IC50 (MAP4K5 (human)) was 493 nM. The IC50 (MERTK (human)) was 746 nM, the IC50 (NLK (human)) was 1100 nM and the IC50 (PRKAA1 (human)) was 1060 nM. It also gave an IC50 (PRKCQ (human)) of 1560 nM, an IC50 (PTK2B (human)) of 1220 nM and an IC50 (RPS6KA3 KD1 KD2 (human)) of 2390 nM. The IC50 (SIK3 (human)) was 346 nM, the IC50 (SMG1 (human)) was 836 nM and the IC50 (SYK (human)) was 745 nM. For the same compound, the IC50 (TAOK1 (human)) was 2630 nM, the IC50 (TBK1 (human)) was 1260 nM and the IC50 (TEC (human)) was 567 nM. It also gave an IC50 (TNK2 (human)) of 316 nM and an IC50 (ULK3 (human)) of 842 nM.
